Laboratory results from the METLIN SMRT retention time set (Domingo-Almenara et al. 2019).

Assay: gradient 5% acetonitrile 3 min, to 50% in 2 min, to 85% in 15 min, held 3 min, 100 µL/min
Settings: column: Zorbax Extend-C18 2.1 x 50 mm; eluents: water / acetonitrile, 0.1% formic acid
In short: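 Using water and acetonitrile that each contained 0.1% formic acid, mixtures of ~100 pure standards were separated at 100 μL/min on a Zorbax Extend-C18 column (2.1 × 50 mm, 1.8 μm). The HPLC fed a quadrupole time-of-flight mass spectrometer working in positive and negative ionization mode, with dead and dwell volumes of 40 μL and 900 μL. Data were acquired over 3 months. Retention time was read from computationally picked adduct peaks after manual inspection of each.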

SMILES	RP-LC retention time [s]
CCOC(=O)N1CCN(C(=O)CSc2ccc(-c3ccc(OC)cc3)nn2)CC1	716
Cc1cccc(CN2C(=O)CN(S(=O)(=O)c3ccccc3)CC2(C)C(=O)NCCC(C)C)c1 (stereo not given)	1030
CCOc1ccc(N2CC(c3nc(-c4cc(OC)c(OC)c(OC)c4)no3)CC2=O)cc1 (stereo not given)	954
CCn1c(=O)c(N2CCN(C(=O)Nc3ccc(Br)cc3F)CC2)nc2ccccc21	1030
COc1ccc2[nH]cc(CCNC(=O)c3sc4ncccc4c3-n3cccc3)c2c1	932
Cc1cc(C(=O)NCc2ccccc2)nc2cc(-c3cccs3)nn12	1080
c1coc(-c2nc3ccccc3c3nnc(SCc4cn5ccccc5n4)n23)c1	867
COc1ccc(NC(=O)NC2CCN(c3ccccc3)C2=O)cc1OC (stereo not given)	683
O=C(Cc1csc(NC(=O)NC2CCCCC2)n1)NCc1ccco1	695
COc1cccc(NC(=O)NCCc2cn(C)c3ncccc23)c1	662
Cc1ccc(-c2csc(NC(=O)CN3C(=O)c4ccccc4C3=O)n2)o1	852
CCn1cc(-c2nc(C)c(C(=O)NC3CCCCC3)s2)c2cccnc21	988
O=c1c2cc3c(cc2nc(SCc2nc(-c4ccccc4)no2)n1Cc1ccncc1)OCO3	776
O=C(c1ccc(Cl)cc1)N1CCN(c2cc(-c3cccs3)[nH]n2)CC1	809
CC(NC(=O)Cc1cn(C)c2ncccc12)c1ccc(F)cc1 (stereo not given)	695
Cc1ccc(N2CC(c3noc(-c4nccc5ccccc45)n3)CC2=O)cc1 (stereo not given)	961
O=S(=O)(Nc1ccc(F)cc1Cl)c1c[nH]c2ncccc12	740
Cn1nc(C(=O)N2CCCC2)c2c1CCN(C(=O)CCC(=O)NCCc1c[nH]c3ccccc13)C2	685
COc1ccccc1-c1noc(C2CCCN2C(=O)Nc2ccccc2Br)n1 (stereo not given)	972
O=C(c1csc(S(=O)(=O)N2CCC(C(=O)N3CCCC3)CC2)c1)N1CCCC1	661
O=C(Cn1ncn2nc(-c3ccccc3)cc2c1=O)N1CCN(c2ccccn2)CC1	620
COC(=O)c1ccc(-c2nc3cnccn3c2Nc2ccccc2OC)cc1	893

SMILES	RP-LC retention time [s]
COc1ccc(-c2cc3n(n2)CCCN(C(=O)c2ccco2)C3)cc1	758
Cc1nnc2cc(N3CCN(S(=O)(=O)c4ccc(F)cc4)CC3)cnn12	670
CCC(=O)N1CCc2cc(N3CC(C(=O)N4CCN(c5ccccn5)CC4)CC3=O)ccc21 (stereo not given)	584
CC(=O)N1CCC(C(=O)NCc2ccccc2)(N(C(=O)c2ccc(C)cc2)C2CCCC2)CC1	942
Cc1ccc(C2(C)NC(=O)NC2=O)cc1 (stereo not given)	604
Cc1ccc(NS(=O)(=O)c2cn(CC(C)C)c3ncccc23)cc1F	953
CCn1cc(-c2ccc(C)cc2)cc1C(=O)O	898
CCNC(=O)c1cnn(-c2ccc(-c3nc(C(C)C)no3)cn2)c1C	983
O=S(=O)(c1ccccc1)N1CCC(CCOc2ccccc2)C1 (stereo not given)	754
CCCN1C(=O)CN(S(=O)(=O)c2ccccc2)CC1(C)C(=O)NCc1ccc(F)cc1 (stereo not given)	827
O=c1n(CCOc2ccccc2)nc2ccc(S(=O)(=O)N3CCCCC3)cn12	922
O=C(NCC(F)(F)F)c1ccc(=O)[nH]c1	534
O=C(Cc1cccs1)Nc1ccc2c(N3CCCCC3)ncnc2c1	594
O=c1c2sccc2n(Cc2nc(-c3ccccc3)no2)c(=O)n1-c1ccccc1F	969
NC(=O)C1(N2CCCCC2)CCN(C(=O)c2cc3ccc4cccnc4c3[nH]2)CC1	574
Cc1c(C(=O)NCc2ccco2)nnn1-c1ccc(Br)cc1	844
C=CCSc1nc2ccccc2c2nc(-c3ccncc3)nn12	1150
Cc1oc2c(c1C(=O)Nc1ccc(F)c(F)c1)C1=NCCN1C=N2	643
O=C(c1ccc2c(c1)CCN2C(=O)C1CC1)N1CCN(c2ccccc2)CC1	829
Cc1ccc(-c2noc(C3CCCN3S(=O)(=O)c3cccc(Cl)c3C)n2)cc1 (stereo not given)	1270
O=C(c1ccco1)N1CCC(OCc2nc(C3CC3)no2)CC1	732
COC(=O)[C@H]1[C@H]2C[C@H]3c4[nH]c5cc(OC)ccc5c4CCN3C[C@H]2C[C@@H](OC(=O)c2cc(OC)c(OC)c(OC)c2)[C@@H]1OC	913

SMILES	RP-LC retention time [s]
Cn1c2c(c3ccccc31)C(C(=O)NCc1ccc(F)cc1)N(Cc1cccnc1)C(=O)CS2 (stereo not given)	703
CN(C)C(CNC(=O)c1cc(-c2ccc3c(c2)OCCO3)on1)c1ccc(Cl)cc1 (stereo not given)	705
O=C(CN1CC=C(c2cnn(-c3ccccc3)c2)CC1)NCc1ccco1	646
Cc1cc(N2CCN(C)CC2)nc(N2CCN(S(=O)(=O)c3ccc(-c4ccccc4)cc3)CC2)n1	615
Cc1cc(C)cc(NC(=O)C2CCN(c3cncnc3N3CCOCC3)CC2)c1	657
Cc1sc(NC(=O)c2ccc(Cl)cc2)nc1-c1ccc2c(c1)NC(=O)C(C)O2 (stereo not given)	968
Cc1ccoc1C(=O)Nc1ccc(C(N)=O)cc1	629
O=C(c1cccc(Cl)c1)N1C[C@@H]2C[C@H]1C[C@@H]2NS(=O)(=O)c1cccnc1	709
CC1(C(=O)NCc2ccc(F)cc2)CCCN(C(=O)Nc2ccc(F)c(Cl)c2)C1 (stereo not given)	972
N#Cc1cccc(NC(=O)Cn2cccc(-c3nc(-c4ccc(F)cc4)no3)c2=O)c1	859
CCCCN1C(=O)C(CC(=O)N2CCCC2)Sc2ncccc21 (stereo not given)	755
CCOc1ccc(NC(=O)Cn2c(=O)nc(N3CCCC(C)C3)c3ccccc32)cc1 (stereo not given)	845
COc1cccc(CNC(=O)Cn2ncc3c(N4CCN(c5ccccn5)CC4)ncnc32)c1	598
CCc1cccc(NS(=O)(=O)c2cc3n(c2)CCCNC3=O)c1	690
O=C(NCc1ccccn1)C(=O)c1cn(CC(=O)N2CCOCC2)c2ccccc12	614
CCOCCCNC(=O)C1CCN(S(=O)(=O)c2ccc3c(c2)CCCC(=O)N3)CC1	656
CCc1ccccc1NC(=O)C1CCN(S(=O)(=O)c2ccc3c(c2)sc(=O)n3CC)CC1	932
Cc1ccc(NC(=O)Cn2nc(C(=O)N3CCCC3)c3ccccc32)cc1C	828
Cc1ccc(C)c(N2CCN(C(=O)C3CCN(C(=O)C4Sc5ccccc5NC4=O)CC3)CC2)c1 (stereo not given)	944
COc1ccc(-c2noc(-c3cccn(CC(=O)Nc4ccc5c(c4)OCO5)c3=O)n2)cc1OC	741
O=C(NCCc1csc(-c2ccccc2)n1)C1CCN(S(=O)(=O)c2cccc(Cl)c2)CC1	982
